Molecules are shown by their SMILES. pEC50: −log10 of the molar value.

In the first experiment the target is recombinant human nicotinic acid receptor (NAR) (Homo sapiens, UniProt Q8TDS4). Kind of experiment: Nicotinic Acid Receptor Assay: inhibition of forskolin-stimulated cAMP accumulation in CHO cells (MesoScale Discovery cAMP kit). It counts as cell-based. The note with it: CHO cells expressing recombinant human NAR; forskolin-stimulated cAMP; read-out: NA EC50 camp. The procedure: The nicotinic acid receptor agonist activity of the inventive compounds was determined by following the inhibition of forskolin-stimulated cAMP accumulation in cells using the MesoScale Discovery cAMP detection kit following the manufacture's protocol. Briefly, Chinese Hamster Ovary (CHO) cells expressing recombinant human nicotinic acid receptor (NAR) were harvested enzymatically, washed 1× in phosphate buffered saline (PBS) and resuspended in PBS containing 0.5 mM IBMX at 3×10^6 cells/mL. Ten μL of cell suspension was added to each well of a 384-well plate which contained 10 μL of test compounds. Test compounds were diluted with PBS containing 6 μM of forskolin. Plates were incubated for 30 minutes at room temperature after the addition of cells. Lysis buffer containing cAMP-Tag was added to each well (10 μL/well) as per the manufacturer's protocol. Plates were then incubated from 45 minutes to overnight. Prior to reading, 10 μL of read buffer was added to each well, and the plate was read in a Sector 6000 plate imager. The signal was converted to cAMP concentration using a standard curve run on each plate.
recombinant human nicotinic acid receptor (NAR), sequence (Q8TDS4 whole entry): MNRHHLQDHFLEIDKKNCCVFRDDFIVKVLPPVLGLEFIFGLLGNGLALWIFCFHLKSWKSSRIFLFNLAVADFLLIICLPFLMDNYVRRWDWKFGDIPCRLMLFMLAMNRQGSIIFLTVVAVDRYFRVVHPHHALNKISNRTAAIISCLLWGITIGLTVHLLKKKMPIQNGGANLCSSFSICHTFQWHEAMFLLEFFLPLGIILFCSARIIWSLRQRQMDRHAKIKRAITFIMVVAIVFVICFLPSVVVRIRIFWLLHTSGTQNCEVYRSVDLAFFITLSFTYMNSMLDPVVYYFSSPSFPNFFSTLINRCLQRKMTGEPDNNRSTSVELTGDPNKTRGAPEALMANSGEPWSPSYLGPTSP
(Changes in cAMP serve as a functional read-out for many G protein-coupled receptors.)
What is called pEC50 is the EC50 on a negative log10 scale, so that one unit is a factor of ten. As to `CCc1cc(=O)oc2nc(OCc3cc(Cl)ccc3OC)[nH]c(=O)c12` [Compound 507], the pEC50 was 7.00 to 12.00.

Turning to `CCc1cc(=O)oc2nc(OCCCOc3ccccc3)[nH]c(=O)c12` [Compound 596], the pEC50 is 6.00 to 7.00.

`O=C(OCc1ccccc1)N1CCC(CCc2cc(=O)oc3[nH]c(=O)[nH]c(=O)c23)CC1` [Compound 234]: the pEC50 was under 6.00.

With `CCc1cc(=O)oc2nc(OCc3cc4cc(C)ccc4s3)[nH]c(=O)c12` [Compound 654], the pEC50 was 7.00 to 12.00.

As for `CC(C)(C)CCCc1cc(=O)oc2[nH]c(=O)n(C3CCC3)c(=O)c12` [Compound 284], the pEC50 is 6.00 to 7.00.

Regarding `Cn1c(=O)[nH]c2oc(=O)cc(CCC3CC3)c2c1=O` [Compound 276], the pEC50 is 6.00 to 7.00.

`CCc1cc(=O)oc2nc(OCc3cccc(-c4ccc(F)cc4)c3)[nH]c(=O)c12` [Compound 566]: the pEC50 is under 6.00.

With `CCCCc1cc(=O)oc2nc(OCc3cc[n+]([O-])cc3)[nH]c(=O)c12` [Compound 681], the negative-log EC50 (pEC50) was under 6.00.

With `CCc1cc(=O)oc2nc(OCc3cc(C)nn3C(C)(C)C)[nH]c(=O)c12` [Compound 673], the negative logarithm of the EC50 (pEC50) was 6.00 to 7.00.

For `CCCOCCCc1cc(=O)oc2[nH]c(=O)[nH]c(=O)c12` [Compound 270], the pEC50 was 7.00 to 12.00.

With `CCc1c(-c2ccccc2)c(=O)oc2[nH]c(=O)n(C3CCC3)c(=O)c12` [Compound 203], the negative-log EC50 (pEC50) is under 6.00.

Regarding `CCc1cc(=O)oc2nc(OCc3cc(Cl)cc(Cl)c3)[nH]c(=O)c12` [Compound 503], the negative logarithm of the EC50 (pEC50) was 6.00 to 7.00.

Turning to `CCc1cc(=O)oc2nc(OCc3ccc(Br)cn3)[nH]c(=O)c12` [Compound 536], the pEC50 was 6.00 to 7.00.

With `CCc1cc(=O)oc2nc(OCC#CCCOC)[nH]c(=O)c12` [Compound 664], the negative-log EC50 (pEC50) was 6.00 to 7.00.

For `O=c1[nH]c(=O)c2c(CCCc3cn(Cc4ccccc4)nn3)cc(=O)oc2[nH]1` [Compound 251], the negative-log EC50 (pEC50) is 6.00 to 7.00.

Take `CCc1cc(=O)oc2nc(OCCOC3CCCCC3)[nH]c(=O)c12` [Compound 610]: the pEC50 was under 6.00.

For `O=c1[nH]c(=O)c2c(C3CC3)cc(=O)oc2[nH]1` [Compound 283], the pEC50 is 6.00 to 7.00.

In the case of `CCc1cc(=O)oc2nc(OCc3cccc(-c4ccc(F)c(Cl)c4)c3)[nH]c(=O)c12` [Compound 558], the negative logarithm of the EC50 (pEC50) is under 6.00.

For `CCc1cc(=O)oc2nc(OCc3cc(-c4ccccc4Cl)no3)[nH]c(=O)c12` [Compound 640], the negative-log EC50 (pEC50) is 6.00 to 7.00.

Consider `CCc1noc(C)c1COc1nc2oc(=O)cc(CCC(C)C)c2c(=O)[nH]1` [Compound 688], for which the pEC50 is 6.00 to 7.00.

Consider `CCc1c(C#Cc2ccccc2)c(=O)oc2[nH]c(=O)[nH]c(=O)c12` [Compound 219], for which the negative logarithm of the EC50 (pEC50) was under 6.00.

Consider `CCCCc1cc(=O)oc2[nH]c(=O)n(CC3CC3)c(=O)c12` [Compound 258], for which the pEC50 is 6.00 to 7.00.

For `CC(C)(C)OC(=O)N1CCC(Cc2cc(=O)oc3[nH]c(=O)[nH]c(=O)c23)CC1` [Compound 221], the pEC50 is under 6.00.

As for `CCc1cc(=O)oc2nc(OCc3ccccc3C#N)[nH]c(=O)c12` [Compound 611], the pEC50 is under 6.00.

Consider `CCc1cc(=O)oc2nc(OCc3c(-c4c(Cl)cccc4Cl)noc3C)[nH]c(=O)c12` [Compound 647], for which the pEC50 is 6.00 to 7.00.

Consider `CCc1cc(=O)oc2nc(OC[C@H](O)c3ccccc3)[nH]c(=O)c12` [Compound 633], for which the pEC50 was 6.00 to 7.00.

Regarding `CCc1cc(=O)oc2nc(OCc3cccc(-c4ccc(OC)nc4)c3)[nH]c(=O)c12` [Compound 562], the negative logarithm of the EC50 (pEC50) is 6.00 to 7.00.

Turning to `CCc1cc(=O)oc2nc(OCc3cccc(N(C)C)c3)[nH]c(=O)c12` [Compound 619], the pEC50 was 6.00 to 7.00.

On to `O=c1[nH]c(=O)c2c(CCCOC3CCCC3)cc(=O)oc2[nH]1` [Compound 271], for which the pEC50 is 6.00 to 7.00.

Turning to `CCc1cc(=O)oc2nc(OCc3csc(-c4cccs4)n3)[nH]c(=O)c12` [Compound 541], the negative logarithm of the EC50 (pEC50) was 6.00 to 7.00.

`CCc1cc(=O)oc2nc(OCc3ccccc3-c3cccc(C(=O)NC4CC4)c3)[nH]c(=O)c12` [Compound 553]: the negative logarithm of the EC50 (pEC50) was under 6.00.

Consider `O=c1cc(CCCC2CC2)c2c(=O)n(C3CCC3)c(=O)[nH]c2o1` [Compound 224], for which the pEC50 was 7.00 to 12.00.

As to `O=c1cc(Cc2ccccc2)c2c(=O)[nH]c(OCc3ccccc3)nc2o1` [Compound 627], the pEC50 is under 6.00.

With `CCn1c(=O)[nH]c(=O)c2c(CCC3CC3)cc(=O)oc21` [Compound 277], the negative-log EC50 (pEC50) is under 6.00.

Take `CCc1cc(=O)oc2nc(OCc3cc(C)cc(C)c3)[nH]c(=O)c12` [Compound 505]: the pEC50 was 6.00 to 7.00.

With `CSCCCc1cc(=O)oc2[nH]c(=O)[nH]c(=O)c12` [Compound 225], the pEC50 was 7.00 to 12.00.

As to `CCc1cc(=O)oc2nc(OCc3ccccc3-c3cccc(C(N)=O)c3)[nH]c(=O)c12` [Compound 585], the pEC50 was 6.00 to 7.00.

`CCOc1ccc(-c2c(CCC3CCC3)c3c(=O)[nH]c(=O)[nH]c3oc2=O)cc1` [Compound 703]: the pEC50 is under 6.00.

As to `CCOCCCc1cc(=O)oc2[nH]c(=O)[nH]c(=O)c12` [Compound 239], the negative logarithm of the EC50 (pEC50) is 7.00 to 12.00.

For `Cc1ccccc1-c1cc(CCCc2cc(=O)oc3[nH]c(=O)[nH]c(=O)c23)on1` [Compound 243], the pEC50 was 6.00 to 7.00.

Take `CCC(CC)CCc1cc(=O)oc2[nH]c(=O)[nH]c(=O)c12` [Compound 269]: the pEC50 was 6.00 to 7.00.

In the case of `N#Cc1ccc(-c2c(CCC3CCC3)c3c(=O)[nH]c(=O)[nH]c3oc2=O)cc1` [Compound 702], the pEC50 is under 6.00.

Regarding `CC(C)(C)CCCc1cc(=O)oc2[nH]c(=O)[nH]c(=O)c12` [Compound 262], the negative logarithm of the EC50 (pEC50) was 7.00 to 12.00.

Regarding `CCc1noc(C)c1COc1nc2oc(=O)cc(CCC3CCCC3)c2c(=O)[nH]1` [Compound 689], the pEC50 is 6.00 to 7.00.

`CCc1cc(=O)oc2nc(OCc3cc4ccccc4s3)[nH]c(=O)c12` [Compound 538]: the negative-log EC50 (pEC50) was 6.00 to 7.00.

In the case of `CCc1cc(=O)oc2nc(OCCCSC)[nH]c(=O)c12` [Compound 642], the pEC50 is 6.00 to 7.00.

Regarding `CC1CC1CCc1cc(=O)oc2[nH]c(=O)[nH]c(=O)c12` (centres unmarked) [Compound 295], the pEC50 was 6.00 to 7.00.

As to `CCc1cc(=O)oc2nc(OCc3nccc4ccccc34)[nH]c(=O)c12` [Compound 528], the pEC50 was 6.00 to 7.00.

As to `CCc1cc(=O)oc2nc(OCc3cccc(-c4cccc5cccnc45)c3)[nH]c(=O)c12` [Compound 560], the negative-log EC50 (pEC50) is under 6.00.

For `CCc1cc(=O)oc2nc(OCc3ncoc3-c3ccccc3)[nH]c(=O)c12` [Compound 540], the pEC50 was 6.00 to 7.00.

The experiment is the same for the next values; noted with them: NA EC50 camp (nM), CHO cells expressing recombinant human NAR; forskolin-stimulated cAMP.
As a reminder, the EC50 is the midpoint of the concentration-response curve. `CCc1cc(=O)oc2nc(OCC#CCO)[nH]c(=O)c12` [Compound 631]: the concentration giving a half-maximal response (EC50) lay within 100 to 1000 nM.

For `CCc1cc(=O)oc2nc(OCCOC)[nH]c(=O)c12` [Compound 524], the concentration for a half-maximal effect (EC50) is 100 to 1000 nM.

Staying with this experiment, now noted: NA EC50 camp, inhibition of forskolin-stimulated cAMP accumulation, CHO cells expressing recombinant human NAR.
Regarding `O=c1cc(CCC2CC2)c2c(=O)[nH]c(C(F)F)nc2o1` [Compound 752], the pEC50 is 6.61.

In the case of `CCCCc1cc(=O)oc2nc(OCC#CC3CC3)[nH]c(=O)c12` [Compound 735], the pEC50 is 7.03.

Staying with this experiment, now noted: inhibition of forskolin-stimulated cAMP accumulation, CHO cells expressing recombinant human NAR; read-out: NA EC50 camp.
`CCCCc1cc(=O)oc2[nH]c(=O)n(O)c(=O)c12` [Compound 806]: the pEC50 was 6.59.

Turning to `O=c1cc(CCCC2CC2)c2c(=O)n(CF)c(=O)[nH]c2o1` [Compound 802], the pEC50 is 7.92.

For the compound `CCCc1cc(=O)oc2[nH]c(=O)n(CF)c(=O)c12` [Compound 817], the pEC50 was 5.84.

For `CCC#CC(C)Oc1nc2oc(=O)cc(CC)c2c(=O)[nH]1` (centres unmarked) [Compound 730], the pEC50 was 6.81.

In the case of `O=c1cc(CCC2CC2)c2c(=O)n(C3CCC3)c(=O)[nH]c2o1` [Compound 780], the negative logarithm of the EC50 (pEC50) is 7.44.

Consider `CCCc1cc(=O)oc2[nH]c(=O)nc(OCCF)c12` [Compound 825], for which the pEC50 was 6.21.

Take `N#Cc1c(CCCC2CC2)c2c(=O)[nH]c(=O)[nH]c2oc1=O` [Compound 759]: the pEC50 is 5.63.

On to `CCCCCc1cc(=O)oc2nc(CF)[nH]c(=O)c12` [Compound 744], for which the negative logarithm of the EC50 (pEC50) was 6.89.

For `COCCn1c(=O)[nH]c2oc(=O)cc(CCC3CC3)c2c1=O` [Compound 800], the negative logarithm of the EC50 (pEC50) was under 5.00.

`COCCn1c(=O)[nH]c(=O)c2c(CCC3CC3)cc(=O)oc21` [Compound 801]: the pEC50 is under 5.00.

Turning to `CCCCc1cc(=O)oc2c1c(=O)[nH]c(=O)n2O` [Compound 805], the pEC50 is 5.69.

As for `O=c1[nH]c(=O)c2c(CC3CCCCC3)cc(=O)oc2[nH]1` [Compound 103], the negative logarithm of the EC50 (pEC50) is 7.13.

Consider `CCOn1c(=O)[nH]c2oc(=O)cc(CCC3CCC3)c2c1=O` [Compound 777], for which the pEC50 was 5.25.

Consider `CCC#CC(C)Oc1nc2oc(=O)cc(CCCC3CC3)c2c(=O)[nH]1` (centres unmarked) [Compound 718], for which the pEC50 was 6.79.

Regarding `CCCCCc1cc(=O)oc2nc(C(F)F)nc(OCc3ccc(OC)cc3)c12` [Compound 742], the negative-log EC50 (pEC50) is 5.97.

With `CSCCCc1cc(=O)oc2nc(CF)[nH]c(=O)c12` [Compound 751], the pEC50 is 6.31.

On to `O=c1[nH]c(=O)c2c(CCC3CCCC3)cc(=O)oc2[nH]1` [Compound 125], for which the negative-log EC50 (pEC50) is 8.92.

Regarding `CC(C)(C)CCCc1cc(=O)oc2[nH]c(=O)[nH]c(=O)c12` [Compound 262], the negative logarithm of the EC50 (pEC50) is 7.30.

For `CCn1c(=O)[nH]c2oc(=O)cc(CCC3CCC3)c2c1=O` [Compound 783], the pEC50 was 7.19.

As to `O=c1cc(CCCC2CC2)c2c(=O)n(CCF)c(=O)[nH]c2o1` [Compound 804], the negative logarithm of the EC50 (pEC50) was 6.75.

Source of the values: patent publication US7737155B2, “Nitrogen-containing heterocyclic compounds and methods of use thereof” (Schering Corporation, priority 2005, dated 2010).
